How the values were obtained:
[1] = tested on: interaction between hLBP and E. coli LPS; assay: ELISA: binding of biotinylated-LPS to surface-captured human LBP in the presence of peptides; details: LPS and peptide incubated 2 h at room temperature; fixed quantities of peptide
Excerpt: This example describes the capacity of preferred peptides of the invention to block the interaction between LBP and E. coli LPS. An ELISA was used to determine the binding of biotinylated-LPS to surface-captured human LBP, in the presence or absence of fixed quantities of the selected peptides. LPS was biotinylated according to standard procedures. Human LBP (hLBP) was captured by using a specific monoclonal antibody, purified by affinity chromatography. Mixtures of LPS and each peptide were incubated during 2 h at room temperature, and then 100 μL were added to hLBP-containing wells. The binding of biotinylated-LPS to hLBP was detected with horseradish peroxidase-conjugated streptavidin. The assay was developed by adding a chromogenic substrate. […] Each experiment recorded the interaction of hLBP and biotinylated-LPS in absence of peptides, in presence of LBP86-99, and in the example presented in FIG. 2 the effect of a non-related cationic peptide (C5,3).
Human LBP was captured to the plates using a specific monoclonal antibody. Binding of biotinylated-LPS was detected with an streptavidin-horseradish peroxidase conjugate. The extent to which the peptide LBP86-99 (LBP) inhibits this interaction is also shown.
The experimental conditions were similar to those described in FIG. 1. The effect of a non-related cationic peptide, C5,3 is also included.

[2] = tested on: LPS-induced human peripheral blood mononuclear cells (PBMC); assay: Release of TNF by LPS-induced human PBMC; format: cell-based; details: E. coli 0111:B4 LPS incubated with peptide 2 h at 37° C.; human LBP 200 ng/mL; TNFα in supernatants after 18 h; average of three experiments
Protocol: In order to determine if the peptides of the present invention were able to neutralize LPS-mediated responses, their ability to reduce the release of TNF by LPS-activated human peripheral blood cells was estimated. This assay evaluates the release of TNF by LPS-induced human peripheral blood mononuclear cells (PBMC), using concentrations of LPS commonly found in septic patients. LPS was incubated with fixed concentrations of each peptide during 2 h at 37° C. and the mixtures were then added to PBMC. The culture medium was supplemented with human LBP (200 ng/mL) and plates were incubated at 37° C. in a 5% CO2 atmosphere. TNFα was measured in culture supernatants after 18 h using a human TNF-α specific ELISA. FIG. 4 represents the average results from three different experiments. […] LBPA95 and LBPA96. […] Similar results were observed when other concentrations of LPS (2 or 10 ng/mL) and hLBP (20 or 100 ng/mL) were used.
The effects on this assay of LBP86-99 (LBP), LBPA91, B6,1 and polymyxin B (PMB) are also shown.

[3] = tested on: E. coli LPS lethal challenge in BALB/c mice; assay: Endotoxin shock model in Actinomycin D-sensitized mice, survival; format: in vivo; details: Actinomycin D 7.5 μg i.p., E. coli LPS 1 μg/mouse mixed with peptide (1 h, 37° C.), equimolar doses, survival over 120 h, p<0.05 vs. vehicle or B6,1
Protocol: An endotoxin shock animal model was used to determine if the peptides of this invention were able to block complex physiological responses triggered by LPS. In this model mice were sensitized with Actinomycin D to increase LPS-mediated toxic responses. With this purpose, Actinomycin D (7.5 μg) was administered i.p. to 6 to 8 weeks-old female mice. Simultaneously each mice received LPS, and survival was evaluated every 24 h during 120 h.
The effect of peptides of the present invention on mice survival was assessed by administering E. coli LPS (1 μg/mouse in saline vehicle) or LPS:peptide mixtures mixtures (previously incubated during 1 h at 37° C.) to BALB/c sensitized mice. FIG. 6 represents the results of a representative experiment where the following peptides were each administered at equimolar doses to groups of 20 mice: LBP86-99, LBPA94, LBPAs95, LBPA98 or B6, 1 (cationic, non-related peptide). […] The aforementioned in vivo neutralizing property of the peptides of the invention is relevant for their application in prophylactic or therapeutic methods for sepsis and other associated disorders.
Survival in groups of BALB/c mice treated with LBP86-99 (LBP) and B6,1 is also shown. Mice survival was recorded each 24 h during 120 h.

[4] = tested on: LPS-stimulated human PBMC; assay: LPS-induced IL-6 production in cultures of human PBMC; format: cell-based; details: at every hLBP concentrations tested
Protocol: In order to determine if the peptides of the present invention were able to neutralize LPS-mediated responses, their ability to reduce the release of TNF by LPS-activated human peripheral blood cells was estimated. This assay evaluates the release of TNF by LPS-induced human peripheral blood mononuclear cells (PBMC), using concentrations of LPS commonly found in septic patients. LPS was incubated with fixed concentrations of each peptide during 2 h at 37° C. and the mixtures were then added to PBMC. The culture medium was supplemented with human LBP (200 ng/mL) and plates were incubated at 37° C. in a 5% CO2 atmosphere. TNFα was measured in culture supernatants after 18 h using a human TNF-α specific ELISA. […]
This invention provides peptides with advantageous functions over other LBP-derived peptides that have the native sequence or different a.a. replacements to those herein described at positions +1, +5, +6, +7, +9, +10, +11, +12 and +13. […] IL-6 was measured in culture supernatants after 18 h using a human IL-6 specific ELISA. In the represented experiment, the following peptides were evaluated; LPB86-99, LBP-H (LBP86-101, SEQ ID NO. 56)^13, LBPA94, LBPA95, and LBPA98. […]
Results are expressed as % inhibition of IL-6 release compared with the cytokine production in the absence of peptides The effects on this assay of LBP86-99, (LBP), LBP-H and B6,1 are also shown.

How did the “interaction between hLBP and E. coli LPS (binding of biotinylated-LPS to captured hLBP)” value (“interaction between hLBP and E. coli LPS” below) [1] turn out when “LBPA97: peptide with a residue at +6, +7 or +12 distinct from those of the invention, SEQ ID No.54 (RVQGRWKVRKSAFK)” was run?
Its value is “not affected”.

Which “interaction between hLBP and E. coli LPS” value [1] does the source give for “LBPA86: LBP 86-99 peptide analogue, SEQ ID No.2 (AVQGRWKVRKSFFK)” here?
Its value is “notably impaired”.

For “LBPA90: LBP 86-99 peptide analogue, SEQ ID No.3 (RVQGAWKVRKSFFK)”, which “interaction between hLBP and E. coli LPS” value [1] is on record?
Its value is “notably impaired”.

How did the “LPS-stimulated TNF release by human PBMC” value [2] turn out when “LBPA94: LBP 86-99 peptide analogue, SEQ ID No.4, essential a.a. at position +9 (RVQGRWKVAKSFFK)” was run?
Its value is “Reduced levels of cytokine release”.

What about the mice survival [3] of the same substance?
Its mice survival is “significantly increased”.

And the “interaction between hLBP and E. coli LPS” value [1]?
Its value is “notably impaired”.

What does the source list for “LBP86-99: peptide with the native sequence of the 86-99 a.a. region of human LBP mature protein (RVQGRWKVRKSFFK) [reference compound]”?
LPS-stimulated TNF release by human PBMC [2]: Reduced levels of cytokine release; mice survival [3]: only marginally

Which results are given for “LBPA91: peptide which has tryptophan residue at position (6) replaced with alanine, SEQ ID No.55 (RVQGRAKVRKSFFK)”?
LPS-stimulated TNF release by human PBMC [2]: did not inhibit; interaction between hLBP and E. coli LPS (binding of biotinylated-LPS to captured hLBP) [1]: not affected

“LBPA98: LBP 86-99 peptide analogue, SEQ ID No.7, essential a.a. at position +13 (RVQGRWKVRKSFAK)” was tested. Which mice survival [3] did it give?
Its mice survival is “significantly increased”.

What about the “interaction between hLBP and E. coli LPS” value [1] of the same substance?
The value was “notably impaired”.

What does the source list for “LBPA95: LBP 86-99 peptide analogue, SEQ ID No.5, essential a.a. at position +10 (RVQGRWKVRASFFK)”?
reduction of the LPS-triggered response (IL-6) [4]: more than 70%; LPS-stimulated TNF release by human PBMC [2]: Reduced levels of cytokine release; mice survival [3]: significantly increased; interaction between hLBP and E. coli LPS (binding of biotinylated-LPS to captured hLBP) [1]: notably impaired

With “LBPA96: LBP 86-99 peptide analogue, SEQ ID No.6 (RVQGRWKVRKAFFK)” as the substance, how does the “LPS-stimulated TNF release by human PBMC” value [2] read?
The value was “Reduced levels of cytokine release”.

And the “interaction between hLBP and E. coli LPS” value [1]?
Its value is “notably impaired”.

Which “interaction between hLBP and E. coli LPS” value [1] does the source give for “LBPA92: peptide with a residue at +6, +7 or +12 distinct from those of the invention, SEQ ID No.53 (RVQGRWAVRKSFFK)” here?
The value was “not affected”.

— US7012127B1, “Analogues of lipopolysaccharide-binding protein (LBP)-derived peptides that efficiently neutralize lipopolysaccharides (LPS)” (Centro de Ingenicria Genetica y Biotecnologia, priority 1999, dated 2006)
